From US20180193490A1, “Beta Amyloid Staging” (GE HEALTHCARE LIMITED, priority 2015, published 2018)

Biological target: T1, beta amyloid (Aβ) plaques in the brain (Homo sapiens, UniProt P05067)
T1 construct: from tissue; host or cells: brain of living subjects (cortex and striatum), in vivo PET
Assay: GE067-026 blinded image evaluation (BIE) of amyloid PET images, separate cortical and striatal assessment
Type: in vivo
Settings: for Subjects classified C+S+ by BIE assessment / Subjects classified C+S− by BIE assessment / Subjects classified C−S+ by BIE assessment / Subjects classified C−S− by BIE assessment: GE067-026 data set, N = 106; for BIE assessments C+S+ against striatal plaque count by histopathology / BIE assessments C+S− against striatal plaque count by histopathology / BIE assessments C−S− against striatal plaque count by histopathology: N = 108 subjects and 5 readers
Description: The data presented explore the use of separate cortical and striatal assessments to aid the Thal (amyloid) phase assignation to in life subjects. The data sets used are from a Flutemetamol (18F) Injection Phase III clinical trial. In this trial PET image assessment was compared to histopathological assessment of amyloid pathology from autopsy. The available data for a preliminary analysis of amyloidosis staging using separate cortical and striatal assessments comes from two sources: • (1) The blinded image evaluations (BIEs) from the GE067-026 clinical trial (NCT02090855) • (2) Provisional SUVR determinations in post-hoc analyses of the GE067-026 data During the BIEs for the above trial, 5 independent readers assessed each of 106 amyloid PET images as abnormal or normal. These dichotomous assessments formed the primary analysis for the trial. However, the individual cortical and striatal assessments were recorded and were re-analysed to estimate the cortical and striatal status separately. For each subject, each of the five readers rated 4 cortical regions and 1 striatal region as Aβ positive or Aβ negative.^1 ^1 All regions assessed are bilateral. Readers assessed images bilaterally—left and right hemispheres—but recoded only one result for each of the 5 bilateral regions. Applying the same general principle that if any of the 4 cortical regions are positive this confers cortical positivity, separate cortical and striatal assessments were determined for each case.

T1 sequence (P05067 672-713 limits assumed): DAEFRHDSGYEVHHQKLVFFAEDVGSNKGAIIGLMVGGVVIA

Share of C+S− cases that were phase 3 (BIE majority assessment): 75% | Cases identified as C+S− by Majority assessment (BIE majority, all Thal phases): 6 | Subjects classified C+S+ by BIE assessment (Reader A): 73 | Subjects classified C+S− by BIE assessment (Reader A): 5 | Subjects classified C−S+ by BIE assessment (Reader A): 1 | Subjects classified C−S− by BIE assessment (Reader A): 28 | Subjects classified C+S+ by BIE assessment (Reader B): 68 | Subjects classified C+S− by BIE assessment (Reader B): 4 | Subjects classified C−S+ by BIE assessment (Reader B): 0 | Subjects classified C−S− by BIE assessment (Reader B): 35 | Subjects classified C+S+ by BIE assessment (Reader C): 64 | Subjects classified C+S− by BIE assessment (Reader C): 6 | Subjects classified C−S+ by BIE assessment (Reader C): 0 | Subjects classified C−S− by BIE assessment (Reader C): 37 | Subjects classified C+S+ by BIE assessment (Reader D): 35 | Subjects classified C+S− by BIE assessment (Reader D): 38 | Subjects classified C−S+ by BIE assessment (Reader D): 0 | Subjects classified C−S− by BIE assessment (Reader D): 34 | Subjects classified C+S+ by BIE assessment (Reader E): 70 | Subjects classified C+S− by BIE assessment (Reader E): 5 | Subjects classified C−S+ by BIE assessment (Reader E): 2 | Subjects classified C−S− by BIE assessment (Reader E): 30 | BIE assessments C+S+ against striatal plaque count by histopathology (STR Plaques Frequent): 289 | BIE assessments C+S− against striatal plaque count by histopathology (STR Plaques Frequent): 37 | BIE assessments C−S− against striatal plaque count by histopathology (STR Plaques Frequent): 23 | BIE assessments C+S+ against striatal plaque count by histopathology (STR Plaques Moderate): 18 | BIE assessments C+S− against striatal plaque count by histopathology (STR Plaques Moderate): 17 | BIE assessments C−S− against striatal plaque count by histopathology (STR Plaques Moderate): 24 | BIE assessments C+S+ against striatal plaque count by histopathology (STR Plaques None): 0 | BIE assessments C+S− against striatal plaque count by histopathology (STR Plaques None): 1 | BIE assessments C−S− against striatal plaque count by histopathology (STR Plaques None): 98 | BIE assessments C+S+ against striatal plaque count by histopathology (STR Plaques Sparse): 0 | BIE assessments C+S− against striatal plaque count by histopathology (STR Plaques Sparse): 1 | BIE assessments C−S− against striatal plaque count by histopathology (STR Plaques Sparse): 19 | Cases categorised C+S+ by BIE majority (Thal (amyloid) Phase 0): 0 | Cases categorised C+S− by BIE majority (Thal (amyloid) Phase 0): 0 | Cases categorised C−S+ by BIE majority (Thal (amyloid) Phase 0): 0 | Cases categorised C−S− by BIE majority (Thal (amyloid) Phase 0): 7 | Cases categorised C+S+ by BIE majority (Thal (amyloid) Phase 1): 0 | Cases categorised C+S− by BIE majority (Thal (amyloid) Phase 1): 0 | Cases categorised C−S+ by BIE majority (Thal (amyloid) Phase 1): 0 | Cases categorised C−S− by BIE majority (Thal (amyloid) Phase 1): 10 | Cases categorised C+S+ by BIE majority (Thal (amyloid) Phase 2): 0 | Cases categorised C+S− by BIE majority (Thal (amyloid) Phase 2): 0 | Cases categorised C−S+ by BIE majority (Thal (amyloid) Phase 2): 0 | Cases categorised C−S− by BIE majority (Thal (amyloid) Phase 2): 5 | Cases categorised C+S+ by BIE majority (Thal (amyloid) Phase 3): 3 | Cases categorised C+S− by BIE majority (Thal (amyloid) Phase 3): 4 | Cases categorised C−S+ by BIE majority (Thal (amyloid) Phase 3): 0 | Cases categorised C−S− by BIE majority (Thal (amyloid) Phase 3): 7 | Cases categorised C+S+ by BIE majority (Thal (amyloid) Phase 4): 17 | Cases categorised C+S− by BIE majority (Thal (amyloid) Phase 4): 2 | Cases categorised C−S+ by BIE majority (Thal (amyloid) Phase 4): 0 | Cases categorised C−S− by BIE majority (Thal (amyloid) Phase 4): 5 | Cases categorised C+S+ by BIE majority (Thal (amyloid) Phase 5): 46 | Cases categorised C+S− by BIE majority (Thal (amyloid) Phase 5): 0 | Cases categorised C−S+ by BIE majority (Thal (amyloid) Phase 5): 0 | Cases categorised C−S− by BIE majority (Thal (amyloid) Phase 5): 0
SMILES: CNc1ccc(-c2nc3ccc(O)cc3s2)cc1F [Flutemetamol]
